Results as given in patent US7446199B2, “Compositions useful as inhibitors of protein kinases” (Vertex Pharmaceuticals Incorporated, priority 2003, dated 2008).

How the values were obtained:
KDR = KDR (Homo sapiens, UniProt P35968); experiment: KDR enzyme assay, coupled enzyme assay; assay type: biochemical; details: 300 μM ATP, 10 μM poly E4Y, 30 nM KDR, 37° C.
Outline: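 Coupled enzyme (PK/LDH, NADH) assay with 30 nM KDR in 200 mM HEPES 7.5, 10 mM MgCl2, 25 mM NaCl, 1 mM DTT, 1.5% DMSO; 300 μM ATP, 10 μM poly E4Y. Compound at 30 μM final, preincubated ~10 min at 37 °C before ATP start; rates read over 5 min at 37 °C.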

GSK-3β, (AA 1-420) = GSK-3β, (AA 1-420) (Homo sapiens, UniProt P49841); experiment: GSK-3 inhibition assay, coupled enzyme system; assay type: biochemical; details: 20 μM ATP, 300 μM peptide, 20 nM GSK-3b, 30° C.; read-out: Ki values (GSK3)
GSK-3β, (AA 1-420), sequence (P49841 whole entry, the tested form may be a part): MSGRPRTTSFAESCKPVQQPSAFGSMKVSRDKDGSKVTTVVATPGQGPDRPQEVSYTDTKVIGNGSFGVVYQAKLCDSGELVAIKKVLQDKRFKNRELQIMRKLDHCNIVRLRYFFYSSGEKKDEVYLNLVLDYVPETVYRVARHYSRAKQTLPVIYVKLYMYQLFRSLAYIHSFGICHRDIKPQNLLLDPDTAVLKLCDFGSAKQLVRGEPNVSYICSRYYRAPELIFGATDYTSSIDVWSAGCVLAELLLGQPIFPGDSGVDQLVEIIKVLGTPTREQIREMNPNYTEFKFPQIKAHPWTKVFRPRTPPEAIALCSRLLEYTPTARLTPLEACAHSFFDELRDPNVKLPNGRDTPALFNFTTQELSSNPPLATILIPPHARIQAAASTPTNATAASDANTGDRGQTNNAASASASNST
Outline: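 Pyruvate kinase/lactate dehydrogenase-coupled NADH assay with 20 nM enzyme, 20 μM ATP and 300 μM peptide in HEPES pH 7.5, 1.5% DMSO, 30° C. Compound (0.002–30 μM, 12-point) preincubated 10 min before ATP start; rates over 10 min gave Ki.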

KDR, sequence (P35968 20-1356): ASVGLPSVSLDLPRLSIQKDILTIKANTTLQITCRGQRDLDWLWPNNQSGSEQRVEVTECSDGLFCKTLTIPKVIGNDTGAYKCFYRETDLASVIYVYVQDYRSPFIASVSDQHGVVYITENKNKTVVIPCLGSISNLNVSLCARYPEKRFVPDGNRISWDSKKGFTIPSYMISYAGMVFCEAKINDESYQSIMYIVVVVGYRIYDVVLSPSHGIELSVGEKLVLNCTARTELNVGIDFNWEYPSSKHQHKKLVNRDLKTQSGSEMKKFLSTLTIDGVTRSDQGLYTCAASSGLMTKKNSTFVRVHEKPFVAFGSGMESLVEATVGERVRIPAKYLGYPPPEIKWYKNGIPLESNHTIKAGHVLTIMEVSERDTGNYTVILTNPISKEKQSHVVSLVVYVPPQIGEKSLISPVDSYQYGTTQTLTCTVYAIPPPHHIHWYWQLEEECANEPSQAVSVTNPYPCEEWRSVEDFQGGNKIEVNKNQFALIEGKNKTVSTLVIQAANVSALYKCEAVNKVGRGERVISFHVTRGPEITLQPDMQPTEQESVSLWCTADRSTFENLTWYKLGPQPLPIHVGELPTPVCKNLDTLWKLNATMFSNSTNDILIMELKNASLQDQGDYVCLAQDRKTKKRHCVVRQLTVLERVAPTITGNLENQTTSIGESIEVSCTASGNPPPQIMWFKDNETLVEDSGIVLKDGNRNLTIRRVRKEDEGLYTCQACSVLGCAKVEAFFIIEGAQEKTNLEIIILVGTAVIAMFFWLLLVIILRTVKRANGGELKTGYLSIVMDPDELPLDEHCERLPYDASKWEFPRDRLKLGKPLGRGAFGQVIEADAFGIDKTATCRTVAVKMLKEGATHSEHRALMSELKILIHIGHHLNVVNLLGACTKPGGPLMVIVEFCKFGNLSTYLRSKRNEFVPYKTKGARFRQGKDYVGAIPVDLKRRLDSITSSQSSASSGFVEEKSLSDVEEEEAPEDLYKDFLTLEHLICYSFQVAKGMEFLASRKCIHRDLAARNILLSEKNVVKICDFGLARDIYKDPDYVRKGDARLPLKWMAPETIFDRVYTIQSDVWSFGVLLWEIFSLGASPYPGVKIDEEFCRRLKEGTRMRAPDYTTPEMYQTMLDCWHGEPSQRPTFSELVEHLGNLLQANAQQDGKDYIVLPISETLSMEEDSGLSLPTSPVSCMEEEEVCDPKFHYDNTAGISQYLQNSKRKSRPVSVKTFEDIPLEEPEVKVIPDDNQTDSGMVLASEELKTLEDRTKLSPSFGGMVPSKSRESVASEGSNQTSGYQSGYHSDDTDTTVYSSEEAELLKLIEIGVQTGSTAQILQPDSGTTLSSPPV

Ki (KDR) [nM] | Ki (GSK-3β, (AA 1-420)) [nM] | Structure (SMILES)
200 to 1000 | 1000 to 12500 | OCc1cnc2[nH]cc(-c3oncc3-c3cccc(F)c3F)c2c1 [Compound 55, {3-[4-(2,3-Difluoro-phenyl)-isoxazol-5-yl]-1H-pyrrolo[2,3-b]pyridin-5-yl}-methanol]
200 to 1000 | 1000 to 12500 | Fc1cnc2[nH]cc(-c3oncc3-c3cccc(F)c3F)c2c1 [Compound 45, 3-[4-(2,3-Difluoro-phenyl)-isoxazol-5-yl]-5-fluoro-1H-pyrrolo[2,3-b]pyridine]
1000 to 12500 | 1000 to 12500 | Fc1ccc(F)c(-c2cnoc2-c2c[nH]c3ncccc23)c1F [Compound 41, 3-[4-(2,3,6-Trifluoro-phenyl)-isoxazol-5-yl]-1H-pyrrolo [2,3-b]pyridine]
– | 1000 to 12500 | Fc1cccc(-c2cnoc2-c2c[nH]c3ccc(-c4ccncc4)cc23)c1F [Compound 34, 3-[4-(2,3-Difluoro-phenyl)-isoxazol-5-yl]-5-pyridin-4-yl-1H-indole]
200 to 1000 | 1000 to 12500 | c1ccc(-c2cnoc2-c2c[nH]c3ncccc23)cc1 [Compound 35, 3-[4-Phenyl-isoxazol-5-yl]-1H-pyrrolo[2,3-b]pyridine]
< 200 | < 200 | C[N+]1(C)CCN(c2ccc(-c3cnc4[nH]cc(-c5oncc5-c5cccc(F)c5F)c4c3)cc2)CC1 [Compound 155]
< 200 | 1000 to 12500 | OB(O)c1cnc2[nH]cc(-c3oncc3-c3cccc(F)c3F)c2c1 [Compound 154]
– | 1000 to 12500 | COc1cnc2[nH]cc(-c3nncn3-c3cccc(F)c3F)c2c1 [Compound 108, 3-[4-(2,3-Difluoro-phenyl)-4H-[1,2,4]triazol-3-yl]-5-methoxy-1H-pyrrolo[2,3-b]pyridine]
1000 to 12500 | 1000 to 12500 | Fc1cc(F)c(F)c(-c2cnoc2-c2c[nH]c3ncccc23)c1 [Compound 39, 3-[4-(2,3,5-Trifluoro-phenyl)-isoxazol-5-yl]-1H-pyrrolo [2,3-b]pyridine]
– | 1000 to 12500 | Fc1cccc(-c2cnoc2-c2c[nH]c3nc(Cl)c(-c4ccncc4)cc23)c1F [Compound 103, 6-Chloro-3-[4-(2,3-difluoro-phenyl)-isoxazol-5-yl]-5-pyridin-4-yl-1H-pyrrolo[2,3-b]pyridine]
200 to 1000 | 1000 to 12500 | Cc1cnc2[nH]cc(-c3oncc3-c3cccc(F)c3F)c2c1 [Compound 46, 3-[4-(2,3-Difluoro-phenyl)-isoxazol-5-yl]-5-methyl-1H-pyrrolo[2,3-b]pyridine]
200 to 1000 | 200 to 1000 | CN1CCN(C(=O)[C@H]2C[C@@H]2c2cnc3[nH]cc(-c4oncc4-c4cccc(F)c4F)c3c2)CC1 (relative stereo) [Compound 142, trans-(2-{3-[4-(2,3-Difluoro-phenyl)-isoxazol-5-yl]-1H-pyrrolo[2,3-b]pyridin-5-yl}-cyclopropyl)-(4-methyl-piperazin-1-yl)-methanone]
200 to 1000 | 1000 to 12500 | NC(=O)c1ccc(-c2cnc3[nH]cc(-c4oncc4-c4cccc(F)c4F)c3c2)cc1 [Compound 153]
1000 to 12500 | 200 to 1000 | Fc1cccc(-c2cnoc2-c2c[nH]c3ncc(CCn4cncn4)cc23)c1F [Compound 132, 3-[4-(2,3-Difluoro-phenyl)-isoxazol-5-yl]-5-(2-[1,2,4]triazol-1-yl-ethyl)-1H-pyrrolo[2,3-b]pyridine]
1000 to 12500 | < 200 | CN(C)C1CCC(c2cnc3[nH]cc(-c4oncc4-c4cccc(F)c4F)c3c2)CC1 (stereo not shown) [Compound 141, (4-{3-[4-(2,3-Difluoro-phenyl)-isoxazol-5-yl]-1H-pyrrolo[2,3-b]pyridin-5-yl}-cyclohexyl)-dimethylamine]
200 to 1000 | 1000 to 12500 | O=C(c1cnc2[nH]cc(-c3oncc3-c3cccc(F)c3F)c2c1)N1CCCC1 [Compound 104, {3-[4-(2,3-Difluoro-phenyl)-isoxazol-5-yl]-1H-pyrrolo[2,3-b]pyridin-5-yl}-pyrrolidin-1-yl-methanone]
200 to 1000 | 200 to 1000 | Fc1cccc(-c2cnoc2-c2c[nH]c3ncc(Cl)cc23)c1F [Compound 44, 3-[4-(2,3-Difluoro-phenyl)-isoxazol-5-yl]-5-chloro-1H-pyrrolo[2,3-b]pyridine]
1000 to 12500 | 1000 to 12500 | Fc1cccc(-n2cnnc2-c2c[nH]c3ncc(-c4ccc(N5CCNCC5)nc4)cc23)c1F [Compound 111, 3-[4-(2,3-Difluoro-phenyl)-4H-[1,2,4]triazol-3-yl]-5-(6-piperazin-1-yl-pyridin-3-yl)-1H-pyrrolo[2,3-b]pyridine]
1000 to 12500 | – | Fc1cccc(-c2cnoc2-c2n[nH]c3ncccc23)c1F [Compound 31, 3-(4-(2,3-difluorophenyl)isoxazol-5-yl)-1H-pyrazolo[3,4-b]pyridine]
